# Measured values from patent publication US20230287066A1, “MATERIALS AND METHODS FOR MAKING SEXUAL STAGE […]” (The Penn State Research Foundation, priority 2020, published 2023).
# Assays:
# [1] = test system: AP2-G-HA-FKBP polypeptide; test: Conditional knockdown of PfAP2-G fused to FKBP destabilization domain; format: cell-based, Plasmodium falciparum; conditions: in the presence of Shld1; AP2-G-HA-FKBP parasites (FIG. 1)
# Source text: A regulatable knockdown of PfAP2-G was generated by engineering a transgenic line with AP2-G fused to an FKBP destabilization domain (DD) as described elsewhere (see, e.g., Kafsack et al., Nature, 507(7491):248-52 (2014)). Briefly, a construct encoding an AP2-G polypeptide fused to an HA-tag and an FKBP DD (e.g., an AP2-G-HA-FKBP polypeptide) was stably integrated into the genome of Plasmodium falciparum lines.
# In the absence of the ligand Shield-1 (Shld1), the FKBP destabilization domain was unstable and targets fusion proteins for proteolytic degradation.
# [2] = test system: P. falciparum expressing a regulatable AP2-G polypeptide and having a reduced level of histone modification at the 3′ pairing element of the pfap2-g locus; test: Gametocytogenesis (percentage sexual conversion) of engineered parasites treated with Shld1; format: cell-based, Plasmodium falciparum; conditions: in the presence of a Shld1 molecule; 3′ pairing element mutant AP2-G-HA-FKBP parasites
# Description: The number of gametocytes was determined by splitting the culture in two and treating half with Shld1 and half with the same volume of the vehicle (Day 1). The parental cell line (AP2-G-HA-FKBP) and the pairing element mutant were tested in parallel. After 48 hours (on Day 3), the number of parasites present was counted by microscopy and N-acetylglucosamine was added to all cultures to specifically kill asexual parasites. On Day 9, when gametocytes developed enough that they were readily distinguished from asexual stage parasites by morphology, the number of gametocytes were counted by microscopy. Percentage sexual conversion was calculated by dividing this by the proportion of parasite-infected red blood cells on Day 3.
smiles,measurement,setting,value
CC[C@H](C(=O)N1CCCC[C@H]1C(=O)O[C@H](CCc1ccc(OC)c(OC)c1)c1cccc(OCCN2CCOCC2)c1)c1cc(OC)c(OC)c(OC)c1 [Shld1],stabilization of FKBP destabilization domain / gametocyte production,[1],gametocytes were produced
same,P. falciparum that commit to gametocytogenesis and form sexual stage parasites,[2],over 60%
